The assay deals with pAG2339 promoter deletion (gus reporter) in PR8-2, PR8-3, PR8-12. It counts as cell-based, tobacco.

Regarding `O=C(O)c1ccccc1O` [SA, salicylic acid], the “change of reporter gene activity (in words)” value is listed as “no significant change”.

The values above are taken from patent publication US7557268B1, “Promoter for expression of a gene and response to infection or wounding” (priority 1999, dated 2009).
